The text below walks through data of PMC7602742, “Physiologically-Based Pharmacokinetic/Pharmacodynamic Model of MBQ-167 to Predict Tumor Growth Inhibition in Mice” (Pharmaceutics, 2020).

For orientation: Cmax means the maximum level reached in the sampled fluid or tissue. One may read the pKa as the pH at which an ionisable group is half protonated. Low values mean a stronger acid or weaker base, high ones a weaker acid or stronger base.

The conditions of data set [1]: cited from earlier work.
For data set [2], the system named is GFP-MDA-MB-231 (TNBC) mammary fat pad tumors. The data set is described as follows: Triple Negative tumor growth study (observed). Format: in vivo, athymic nude (nu/nu) mice. To be noted: 10 mg/kg BW IP three times a week for 108 days. As for the experimental part: As published elsewhere, female athymic nude (nu/nu) mice, 4 to 5 weeks old (Charles River Laboratories, Inc., Wilmington, MA, USA) were maintained under pathogen-free conditions in HEPA-filtered cages (5 mice per cage) under controlled light (12 h light and dark cycle), temperature (22–24 °C), and humidity (25%).
Mammary fat pad tumors were established using green fluorescent protein (GFP)-tagged MDA-MB-435 (HER2++) cells in Matrigel (BD Biosciences, San Jose, CA, USA) or GFP-MDA-MB-231 (TNBC) cells by injecting at the fourth right mammary fat pad under isofluorane inhalation (1–3% in oxygen using an inhalation chamber at 2 L/min) to produce orthotopic primary tumors. […]
Mammary tumor growth was quantified as changes in the integrated density of green fluorescent protein (GFP) fluorescence. […] The FluorVivo small animal in vivo imaging system (INDEC Systems, Inc., Santa Clara, CA, USA) was used for whole body imaging of GFP fluorescence. Tumor fluorescence intensities were analyzed using Image J software (National Institutes of Health, Bethesda, MD, USA, 2019, Version 1.52q 13). Relative tumor growth was calculated as the integrated density of fluorescence of each tumor on each day of imaging relative to the integrated density of fluorescence of the same tumor on day 1 of treatment administration, relative to vehicle controls.

The target of a further data set is CYP3A4 (Homo sapiens, UniProt P08684). The data set is described as follows: CYP inhibition. It counts as in vitro ADME. The text has this: (§1) Due to the limited information of any active process in MBQ-167 renal excretion and/or tubular reabsorption, it was assumed that renal excretion was only mediated by glomerular filtration.
Sequence of CYP3A4 (P08684 whole entry): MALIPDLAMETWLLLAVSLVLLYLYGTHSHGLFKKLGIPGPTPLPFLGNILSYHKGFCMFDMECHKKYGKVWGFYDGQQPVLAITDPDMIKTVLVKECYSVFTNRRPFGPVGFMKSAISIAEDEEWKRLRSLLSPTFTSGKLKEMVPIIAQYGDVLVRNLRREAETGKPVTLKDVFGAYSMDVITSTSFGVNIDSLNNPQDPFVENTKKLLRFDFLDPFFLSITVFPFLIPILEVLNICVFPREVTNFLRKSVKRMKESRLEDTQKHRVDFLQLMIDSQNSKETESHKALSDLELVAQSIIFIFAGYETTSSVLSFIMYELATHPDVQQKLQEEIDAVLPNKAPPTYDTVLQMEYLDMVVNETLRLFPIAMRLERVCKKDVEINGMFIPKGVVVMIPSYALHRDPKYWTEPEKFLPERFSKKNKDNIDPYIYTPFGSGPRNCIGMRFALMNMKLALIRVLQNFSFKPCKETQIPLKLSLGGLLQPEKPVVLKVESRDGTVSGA
Another data set concerns the target CYP2C19 (Homo sapiens, UniProt P33261). The data set is described as follows: CYP inhibition. Format: in vitro ADME.
From the text: as §1

The target of another data set is T1, CYP1A2 (Homo sapiens, UniProt P05177).
T1 sequence (P05177 1-516): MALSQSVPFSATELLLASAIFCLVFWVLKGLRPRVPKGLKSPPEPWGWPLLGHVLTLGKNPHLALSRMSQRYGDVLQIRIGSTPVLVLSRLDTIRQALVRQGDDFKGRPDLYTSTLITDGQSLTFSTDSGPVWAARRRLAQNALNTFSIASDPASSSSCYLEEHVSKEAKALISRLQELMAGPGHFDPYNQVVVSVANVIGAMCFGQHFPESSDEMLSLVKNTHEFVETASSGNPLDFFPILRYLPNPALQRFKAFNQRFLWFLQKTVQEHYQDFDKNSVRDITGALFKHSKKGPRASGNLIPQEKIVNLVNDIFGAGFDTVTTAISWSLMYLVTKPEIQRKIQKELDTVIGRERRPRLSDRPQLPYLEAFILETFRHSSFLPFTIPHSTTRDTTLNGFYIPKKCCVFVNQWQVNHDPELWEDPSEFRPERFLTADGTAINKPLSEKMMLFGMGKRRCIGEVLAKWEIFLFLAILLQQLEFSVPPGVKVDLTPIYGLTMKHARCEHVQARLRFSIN
The data set is described as follows: CYP inhibition. It counts as in vitro ADME.
From the text: as §1

The target of a further data set is CYP2C9 (Homo sapiens, UniProt P11712). The data set is described as follows: CYP inhibition. Format: in vitro ADME.
Sequence of CYP2C9 (P11712 whole entry): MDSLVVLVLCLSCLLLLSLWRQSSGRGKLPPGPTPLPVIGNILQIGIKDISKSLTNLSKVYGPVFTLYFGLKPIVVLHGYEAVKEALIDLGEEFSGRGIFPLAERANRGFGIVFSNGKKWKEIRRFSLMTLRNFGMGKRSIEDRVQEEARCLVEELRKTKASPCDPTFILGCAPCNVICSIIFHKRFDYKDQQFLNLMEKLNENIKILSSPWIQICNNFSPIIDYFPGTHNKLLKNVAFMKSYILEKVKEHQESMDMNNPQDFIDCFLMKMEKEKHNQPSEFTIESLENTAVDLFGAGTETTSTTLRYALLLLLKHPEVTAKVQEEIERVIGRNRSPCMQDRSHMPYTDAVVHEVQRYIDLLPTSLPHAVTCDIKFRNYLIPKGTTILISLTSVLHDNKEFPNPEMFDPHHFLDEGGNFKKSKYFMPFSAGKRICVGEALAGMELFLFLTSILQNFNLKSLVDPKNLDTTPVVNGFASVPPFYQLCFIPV
From the text: as §1

A short description of data set [3]: Intrinsic clearance from in vitro hepatocytes. Conditions: in vitro determined, read-out: Hep intrinsic CL. Format: in vitro ADME.
From the text: as §1

Data set [4] relates to mammary fat pad tumor and metastases. To be noted: cited from earlier work.
A short description of data set [5]: Metabolism on incubation in liver microsomes. It counts as in vitro ADME. Conditions: incubated in liver microsomes.
From the text: as §1
In general terms: Liver microsomes are a subcellular fraction often used to study metabolism.

Data set [6] can be described thus: Plasma and tissue pharmacokinetics after single IP dose (observed). Format: in vivo. To be noted: female, BALB/c, mouse, single IP 10 mg/kg, mice; for AUC(0-t): read-out: AUC obs (AUC0-t). As for the experimental part:
All animal studies were conducted under approved animal protocols (#A8180117, #A8180112) by the University of Puerto Rico Medical Sciences Campus Institutional Animal Care and Use Committee, in accordance with the principles and procedures outlined in the NIH Guideline for the Care and Use of Laboratory Animals. Four to five-week-old female BALB/c mice (Charles River Laboratories, Inc. Wilmington, MA, USA) were housed under pathogen-free conditions in HEPA-filtered cages and kept on a 12 h light/dark cycle, and controlled temperature (22–24 °C), and humidity (25%). Food and water were given ad libitum. MBQ-167 was prepared as a stock solution of 2 mg/mL in Cremophor®:ethanol:PBS (12.5:12.5:75) solution. Each mouse was administered a single 0.1 mL dose of MBQ-167 (in 12.5% ethanol, 12.5% Cremophor®, 75% phosphate buffered saline, pH 7.4) that corresponded to 10 mg/kg body weight (BW) by IP injection.
We used a validated bioanalytical method using supercritical fluid chromatography coupled with tandem mass spectrometry to quantify MBQ-167 in tumors and tissues, as previously described. The analysis was performed on an Acquity UPC^2 system (Waters Corp., Milford, MA, USA) coupled to a triple quadrupole tandem mass spectrometer (MS/MS). An Acquity UPC^2 BEH (3.0 × 100 mm^2, 1.7 μm) column was used for separation purposes.
The final MBQ-167 PBPK model was verified through both graphical and numerical analysis. Experimental and predicted longitudinal plasma concentration- (Cp) and tissue concentration- (Ct) profiles were generated, including the 95% confidence intervals (95% CI) of the observations at each sampling time and the mean predicted concentrations. LSA was performed to evaluate the relative impact of B/P, fu, CLR, CLtumor and PS in the plasma PK exposure parameters (AUC0-t and Cmax). The performance of the MBQ-167 PBPK model was assessed by the fold error at each tissue, which referred to the ratio of the predicted AUC0-t or Cmax to the observed AUC0-t or Cmax, respectively (Equation (1)). AUC0-t was calculated by the trapezoidal rule. Both graphical and numerical analyses were performed in RStudio version 1.2.5019 (Boston, MA, USA, 2019) with R version 3.5.1 (GNU project). (1) Fold ERROR PK parameter=Predicted PK parameter/Observed PK parameter

The next data set relates to Cdc42. The arrangement: method as in PMID 28450422. To be noted: inhibition of GTPase activation; read-out: half-maximal inhibitory concentration (IC50) for Cdc42; cited from earlier work.
On the set-up of data set [7]: method as in PMID 31720502. To be noted: cited from earlier work.
Data set [8] can be described thus: Physicochemical properties (PBPK model inputs). Conditions: model input. The source says:
The molecular weight of MBQ-167 is 338.414 g/mol and the water partition coefficient (logPoctanol:water) ratio is 4.944. […] The fu in plasma was estimated to 0.02. B/P ratio was initially estimated in the base PBPK model development phase and then optimized using a local sensitivity analysis (LSA) with a final value of 1.8.

Data set [9] can be described thus: Tumor pharmacokinetics in 4T1 tumor-bearing mice (observed). To be noted: BALB/c, mouse, tumor (4T1), single IP 10 mg/kg. It counts as in vivo. As to the method:
Thirty-five BALB/c mice were injected with 2.5 × 10^5 4T1 murine metastatic breast cancer cells at the mammary fat pad under isoflurane inhalation (1–3% in oxygen using an inhalation chamber at 2 L/min) to produce primary tumors, as described. Following IP treatment with a single dose of MBQ-167 (10 mg/kg), five mice/group were sacrificed by cervical dislocation at 0.5, 1, 3, 6, 9,12, and 24 h. Following sacrifice, tumors were collected and flushed with normal saline, individually wrapped in aluminum foil, snap-frozen in liquid nitrogen, and stored frozen at −80 °C until use.
Tumor samples were extracted by liquid-liquid extraction method, as previously described by. Briefly, frozen tumors were thawed, weighed (100 mg), and homogenized using the Polytron PT 2100 instrument in pH 7.4 saline (1:4 w/v). […]
We used a validated bioanalytical method using supercritical fluid chromatography coupled with tandem mass spectrometry to quantify MBQ-167 in tumors and tissues, as previously described. […]
The final MBQ-167 PBPK model was verified through both graphical and numerical analysis. […] The performance of the MBQ-167 PBPK model was assessed by the fold error at each tissue, which referred to the ratio of the predicted AUC0-t or Cmax to the observed AUC0-t or Cmax, respectively (Equation (1)). AUC0-t was calculated by the trapezoidal rule. […]

Sequence of CYP2C19 (P33261 whole entry): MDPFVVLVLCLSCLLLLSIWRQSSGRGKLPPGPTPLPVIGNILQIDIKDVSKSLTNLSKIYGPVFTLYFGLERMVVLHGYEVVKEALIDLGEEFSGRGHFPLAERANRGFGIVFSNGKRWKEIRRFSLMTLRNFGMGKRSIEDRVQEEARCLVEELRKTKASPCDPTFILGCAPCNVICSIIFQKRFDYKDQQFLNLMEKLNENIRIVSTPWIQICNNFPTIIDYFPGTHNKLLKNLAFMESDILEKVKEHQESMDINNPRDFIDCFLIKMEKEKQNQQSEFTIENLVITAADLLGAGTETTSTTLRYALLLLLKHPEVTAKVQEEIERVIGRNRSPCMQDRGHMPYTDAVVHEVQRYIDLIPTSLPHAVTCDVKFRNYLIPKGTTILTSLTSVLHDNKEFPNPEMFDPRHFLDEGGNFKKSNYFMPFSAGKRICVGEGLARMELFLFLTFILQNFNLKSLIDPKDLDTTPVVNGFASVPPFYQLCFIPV

For `CCn1c2ccccc2c2cc(Nc3ccnc(NCCCN4CCOCC4)n3)ccc21` [EHop-016], in [1], the t1/2 is 5.73 h.
`O=c1cc(CN2CCOCC2)occ1OCCCCCSc1ccnc2cc(C(F)(F)F)ccc12` [EHT1864]: the t1/2 in data set [1] was 1.65 h.
In the case of `CCn1c2ccccc2c2cc(-n3nncc3-c3ccccc3)ccc21` [MBQ-167], the “observed relative reduction in the final tumor size” value in data set [2] worked out at 87.0%. For the same molecule, the CYP3A4 inhibition entry at CYP3A4 is “inhibits”. The CYP2C19 inhibition result at CYP2C19 is “inhibits”. Also, the CYP1A2 inhibition entry at CYP1A2 is on record as “inhibits”. In addition, at CYP2C9, the CYP2C9 inhibition result is given as “inhibits”. Moreover, in data set [3], the hepatocyte CLint was found to be 79 µL/min/1e6 cells. Also, the effect on metastases result in data set [4] (10 mg/kg BW, mice) is recorded as “total inhibition of metastases”. For the same molecule, the “start of mammary fat pad tumor size reduction after treatment” value in [4] (10 mg/kg BW, mice) is “approximately 3 weeks”. The toxicity in vivo result in [4] (preclinical studies) was “without apparent toxicity”. For the same molecule, the metabolites formed entry in data set [5] is listed as “up to nine metabolites”. Besides, the peak concentration (Cmax) was determined as 0.841 µg/mL in data set [6] (heart); 11.2 µg/mL in data set [6] (kidneys); 4.79 µg/mL in [6] (liver); 1.54 µg/mL in data set [6] (lung); 0.84 µg/mL in data set [6] (plasma); 1.69 µg/mL in [6] (spleen). In addition, the Cmax in [9] amounted to 1.24 µg/mL. The AUC(0-t) was 0.949 µg·h/mL in [6] (heart); 34.3 µg·h/mL in data set [6] (kidneys); 8.39 µg·h/mL in data set [6] (liver); 1.89 µg·h/mL in data set [6] (lung); 1.42 µg·h/mL in data set [6] (plasma); 3.98 µg·h/mL in [6] (spleen). The AUC(0-t) in data set [9] (read-out: AUC obs (AUC0-t)) turned out to be 10.3 µg·h/mL. Further, the IC50 in the data set on Cdc42 is […]. The “volume of distribution reported in the literature” value in data set [7] (mice of 20 g body weight) is reported as 400 mL. Besides, the “systemic plasma clearance (reported/observed)” value in data set [7] (mice) was 2.15 mL/min. Moreover, the “Compound Type” value in data set [8] is on record as “Monoprotic Base”. In data set [8] (source not stated), the pKa stood at 0.27. For the same molecule, the “logPo:w” value in data set [8] (octanol:water, source not stated) was 4.944.
